How the values were obtained:
[1] = tested on: SCD (HbSS mice), Townes transgenic mouse model; assay: Substance P-induced vaso-occlusive crisis (VOC) occurrence and overall survival in Townes transgenic sickle mice; format: in vivo
Description: The Townes transgenic mouse model was utilized for this study (Wu L C et al., Blood 2006; 108:1183-1188). A total of 18 mice were assigned to 3 treatment groups; namely: SCD (HbSS mice) treated with masitinib (SCD Masitinib—intervention group), untreated SCD mice (SCD—positive control group), and WT mice (WT—negative control group).
The HbSS-Townes mouse model was created on a mixed genetic background in which the murine adult α-globin genes were replaced with the human α-globin gene (genotype: Hba hα/hα) and the murine adult β-globin genes were replaced with human sickle βS- and fetal Aγ-globin gene fragments linked together (genotype: Hbb hAγβS/hAγβS) (Nguyen J, et al., Blood 2014; 124(21):4916). HbSS-Townes mice have anemia, a shortened red blood cell half-life of 2.5 days and a severe disease phenotype. Control HbAA-Townes mice were created by replacing the murine globin genes with human α-globin gene (genotype: Hba hα/hα) and linked human βA- and fetal Aγ-globins (genotype: Hbb hAγβA/hAγβA).
Mice were administered freshly prepared solutions of substance P (4 to 40 mg/kg) via intravenous injection.
Mice in the intervention group were administered masitinib at 100 mg/kg/day via gavage for 4 days prior to injection of substance P. […]
Vaso-occlusive crisis (VOC) occurrence and overall survival were analyzed in the mice. […]

[2] = tested on: lung tissue of SCD (HbSS) Townes mice; assay: Lung tissue histology (hematoxylin and eosin; anti-FcεRIα immunostaining) of SCD mice after substance P injection; format: in vivo; details: masitinib 100 mg/kg/day via gavage for 4 days prior to substance P
Method: The Townes transgenic mouse model was utilized for this study (Wu L C et al., Blood 2006; 108:1183-1188). A total of 18 mice were assigned to 3 treatment groups; namely: SCD (HbSS mice) treated with masitinib (SCD Masitinib—intervention group), untreated SCD mice (SCD—positive control group), and WT mice (WT—negative control group). Mice were administered freshly prepared solutions of substance P (4 to 40 mg/kg) via intravenous injection. Mice in the intervention group were administered masitinib at 100 mg/kg/day via gavage for 4 days prior to injection of substance P. Lung tissue was processed immediately after death by cervical dislocation and fixed in 10% buffered formalin. For analysis of the lung tissue cellular structure, samples were stained with hematoxylin and eosin. For analysis of mast cell infiltration, samples were stained with an anti-FcεRIα primary antibody and a fluorophore secondary antibody. The cause of death was then analyzed. […] Lung tissue sections were stained with hematoxylin and eosin. For immunofluorescence, lung tissue sections were incubated with an anti-FcεRIα primary antibody and then stained with a fluorophore secondary antibody.

Question: `Cc1ccc(NC(=O)c2ccc(CN3CCN(C)CC3)cc2)cc1Nc1nc(-c2cccnc2)cs1` [masitinib, 4-(4-methylpiperazin-1-ylmethyl)-N-[4-methyl-3-(4-pyridin-3ylthiazol-2-ylamino)phenyl]benzamide] was tested. Which “Overall survival (death)” value ([1]; SCD mice pretreated with masitinib 100 mg/kg/day via gavage for 4 days prior to injection of substance P, 83% of untreated SCD mice died in the first 3 hours (FIG. 1)) did it give?
Answer: The value was “none died”.

Question: And the “Vaso-occlusive crisis (VOC) occurrence” value ([1]; SCD mice pretreated with masitinib 100 mg/kg/day via gavage for 4 days prior to intravenous injection of substance P, all untreated SCD mice experienced VOC)?
Answer: Its value is “did not present any VOC”.

Question: And the “Infiltration of lung tissue by FcεRI-positive cells (mast cells)” value ([2]; anti-FcεRIα immunofluorescence, versus untreated SCD mice (FIGS. 2A to 2H))?
Answer: The value was “to a far lesser degree”.

Question: What about the “Development of acute chest syndrome (ACS)” value ([2]; concluded from limited FcεRI-positive cell infiltration and absent or limited edema) of the same compound?
Answer: Its value is “did not develop ACS”.

Question: What about the Lung edema ([2]; hematoxylin and eosin staining, versus untreated SCD mice) of the same compound?
Answer: Its Lung edema is “reduced”.
